The text below walks through data of PubChem BioAssay AID1259407 (Chemical Carcinogenesis Research Information System (CCRIS), 2018).

Active and inactive are the calls of the source. How the calls were made is not given here.

The test system of this data set is CCRIS mutagenicity, Ames/micronucleus/aberration tests. Briefly: CCRIS mutagenicity studies.
The mark [1] stands for this setting: Test System: AMES SALMONELLA TYPHIMURIUM, Strain/Indicator: TA97, Metabolic Activation: NONE, Method: PREINCUBATION
Setting [2] is: Test System: AMES SALMONELLA TYPHIMURIUM, Strain/Indicator: TA98, Metabolic Activation: NONE, Method: PREINCUBATION
The mark [3] stands for this setting: Test System: AMES SALMONELLA TYPHIMURIUM, Strain/Indicator: TA100, Metabolic Activation: NONE, Method: PREINCUBATION
Where [4] appears, read: Test System: AMES SALMONELLA TYPHIMURIUM, Strain/Indicator: TA1535, Metabolic Activation: NONE, Method: PREINCUBATION
Where [5] appears, read: Test System: AMES SALMONELLA TYPHIMURIUM, Strain/Indicator: TA100, Metabolic Activation: NONE, Method: STANDARD PLATE.

Turning to `COc1cc(-c2cc(OC)cc(C(C)(C)C)c2O)c(O)c(C(C)(C)C)c1`, the mutagenic call under setting [1] was “inactive; negative”; the mutagenic call (Test System: AMES SALMONELLA TYPHIMURIUM, Strain/Indicator: TA97, Metabolic Activation: RAT, LIVER, S-9, PCB, Method: PREINCUBATION) was “inactive; negative”; the mutagenic call under setting [2] was “inactive; negative”; the mutagenic call (Test System: AMES SALMONELLA TYPHIMURIUM, Strain/Indicator: TA98, Metabolic Activation: RAT, LIVER, S-9, PCB, Method: PREINCUBATION) was “inactive; negative”; the mutagenic call under setting [3] was “inactive; negative”; the mutagenic call (Test System: AMES SALMONELLA TYPHIMURIUM, Strain/Indicator: TA100, Metabolic Activation: RAT, LIVER, S-9, PCB, Method: PREINCUBATION) was “inactive; negative”. Moreover, the mutagenic call is, setting by setting: (Test System: AMES SALMONELLA TYPHIMURIUM, Strain/Indicator: TA102, Metabolic Activation: NONE, Method: PREINCUBATION) “inactive; negative”; (Test System: AMES SALMONELLA TYPHIMURIUM, Strain/Indicator: TA102, Metabolic Activation: RAT, LIVER, S-9, PCB, Method: PREINCUBATION) “inactive; negative”.

Consider `Cn1c([N+](=O)[O-])nc2ncc(-c3ccccc3)cc21`, for which the mutagenic call (Test System: AMES SALMONELLA TYPHIMURIUM, Strain/Indicator: TA98(1,8-DNP6), Metabolic Activation: NONE, Method: PREINCUBATION) is “active; positive”; the mutagenic call (Test System: AMES SALMONELLA TYPHIMURIUM, Strain/Indicator: TA98(NR), Metabolic Activation: NONE, Method: PREINCUBATION) is “active; positive”; the mutagenic call under setting [2] was “active; positive”; the mutagenic call (Test System: AMES SALMONELLA TYPHIMURIUM, Strain/Indicator: YG1024, Metabolic Activation: NONE, Method: PREINCUBATION) was “active; positive”.

As for `CN(C)CCN(Cc1ccsc1)c1ccccn1`, the mutagenic call is, setting by setting: (Test System: AMES SALMONELLA TYPHIMURIUM, Strain/Indicator: TA98, Metabolic Activation: HAMSTER, LIVER, S-9, AROCLOR 1254 (10%), Method: PREINCUBATION) “inactive; negative”; under setting [2], “inactive; negative”; (Test System: AMES SALMONELLA TYPHIMURIUM, Strain/Indicator: TA98, Metabolic Activation: RAT, LIVER, S-9, AROCLOR 1254 (10%), Method: PREINCUBATION) “inactive; negative”; (Test System: AMES SALMONELLA TYPHIMURIUM, Strain/Indicator: TA100, Metabolic Activation: HAMSTER, LIVER, S-9, AROCLOR 1254 (10%), Method: PREINCUBATION) “inactive; negative”; under setting [3], “inactive; negative”; (Test System: AMES SALMONELLA TYPHIMURIUM, Strain/Indicator: TA100, Metabolic Activation: RAT, LIVER, S-9, AROCLOR 1254 (10%), Method: PREINCUBATION) “inactive; negative”. For the same compound, the mutagenic call by setting is: (Test System: AMES SALMONELLA TYPHIMURIUM, Strain/Indicator: TA1535, Metabolic Activation: HAMSTER, LIVER, S-9, AROCLOR 1254 (10%), Method: PREINCUBATION) “inactive; negative”; under setting [4], “inactive; negative”; (Test System: AMES SALMONELLA TYPHIMURIUM, Strain/Indicator: TA1535, Metabolic Activation: RAT, LIVER, S-9, AROCLOR 1254 (10%), Method: PREINCUBATION) “inactive; negative”; (Test System: AMES SALMONELLA TYPHIMURIUM, Strain/Indicator: TA1537, Metabolic Activation: HAMSTER, LIVER, S-9, AROCLOR 1254 (10%), Method: PREINCUBATION) “inactive; negative”; (Test System: AMES SALMONELLA TYPHIMURIUM, Strain/Indicator: TA1537, Metabolic Activation: NONE, Method: PREINCUBATION) “inactive; negative”; (Test System: AMES SALMONELLA TYPHIMURIUM, Strain/Indicator: TA1537, Metabolic Activation: RAT, LIVER, S-9, AROCLOR 1254 (10%), Method: PREINCUBATION) “inactive; negative”.

Regarding `CC(=O)O[C@]1(C(C)=O)CC[C@H]2[C@@H]3C[C@H](C)C4=CC(=O)CC[C@]4(C)[C@H]3CC[C@@]21C`, the mutagenic call runs as follows: (Test System: AMES SALMONELLA TYPHIMURIUM, Strain/Indicator: TA97, Metabolic Activation: HAMSTER, LIVER, S-9, AROCLOR 1254 (10 OR 30%), Method: PREINCUBATION) “inactive; negative”; under setting [1], “inactive; negative”; (Test System: AMES SALMONELLA TYPHIMURIUM, Strain/Indicator: TA97, Metabolic Activation: RAT, LIVER, S-9, AROCLOR 1254 (10 OR 30%), Method: PREINCUBATION) “inactive; negative”; (Test System: AMES SALMONELLA TYPHIMURIUM, Strain/Indicator: TA98, Metabolic Activation: HAMSTER, LIVER, S-9, AROCLOR 1254 (10 OR 30%), Method: PREINCUBATION) “inactive; negative”; under setting [2], “inactive; negative”; (Test System: AMES SALMONELLA TYPHIMURIUM, Strain/Indicator: TA98, Metabolic Activation: NONE, Method: STANDARD PLATE) “inactive; negative”. For the same compound, the mutagenic call (Test System: AMES SALMONELLA TYPHIMURIUM, Strain/Indicator: TA98, Metabolic Activation: RAT, LIVER, S-9, AROCLOR 1254 (10 OR 30%), Method: PREINCUBATION) is “inactive; negative”; the mutagenic call (Test System: AMES SALMONELLA TYPHIMURIUM, Strain/Indicator: TA98, Metabolic Activation: RAT, LIVER, S-9, AROCLOR 1254, Method: STANDARD PLATE) is “inactive; negative”; the mutagenic call (Test System: AMES SALMONELLA TYPHIMURIUM, Strain/Indicator: TA100, Metabolic Activation: HAMSTER, LIVER, S-9, AROCLOR 1254 (10 OR 30%), Method: PREINCUBATION) was “inactive; negative”; the mutagenic call under setting [3] was “inactive; negative”; the mutagenic call under setting [5] is “inactive; negative”; the mutagenic call (Test System: AMES SALMONELLA TYPHIMURIUM, Strain/Indicator: TA100, Metabolic Activation: RAT, LIVER, S-9, AROCLOR 1254 (10 OR 30%), Method: PREINCUBATION) is “inactive; negative”. For the same compound, the mutagenic call (Test System: AMES SALMONELLA TYPHIMURIUM, Strain/Indicator: TA100, Metabolic Activation: RAT, LIVER, S-9, AROCLOR 1254, Method: STANDARD PLATE) was “inactive; negative”; the mutagenic call (Test System: AMES SALMONELLA TYPHIMURIUM, Strain/Indicator: TA1535, Metabolic Activation: HAMSTER, LIVER, S-9, AROCLOR 1254 (10 OR 30%), Method: PREINCUBATION) is “inactive; negative”; the mutagenic call under setting [4] was “inactive; negative”; the mutagenic call (Test System: AMES SALMONELLA TYPHIMURIUM, Strain/Indicator: TA1535, Metabolic Activation: NONE, Method: STANDARD PLATE) was “inactive; negative”; the mutagenic call (Test System: AMES SALMONELLA TYPHIMURIUM, Strain/Indicator: TA1535, Metabolic Activation: RAT, LIVER, S-9, AROCLOR 1254 (10 OR 30%), Method: PREINCUBATION) was “inactive; negative”; the mutagenic call (Test System: AMES SALMONELLA TYPHIMURIUM, Strain/Indicator: TA1535, Metabolic Activation: RAT, LIVER, S-9, AROCLOR 1254, Method: STANDARD PLATE) was “inactive; negative”. The mutagenic call (Test System: AMES SALMONELLA TYPHIMURIUM, Strain/Indicator: TA1537, Metabolic Activation: NONE, Method: STANDARD PLATE) was “inactive; negative”; the mutagenic call (Test System: AMES SALMONELLA TYPHIMURIUM, Strain/Indicator: TA1537, Metabolic Activation: RAT, LIVER, S-9, AROCLOR 1254, Method: STANDARD PLATE) was “inactive; negative”; the mutagenic call (Test System: AMES SALMONELLA TYPHIMURIUM, Strain/Indicator: TA1538, Metabolic Activation: NONE, Method: STANDARD PLATE) was “inactive; negative”; the mutagenic call (Test System: AMES SALMONELLA TYPHIMURIUM, Strain/Indicator: TA1538, Metabolic Activation: RAT, LIVER, S-9, AROCLOR 1254, Method: STANDARD PLATE) is “inactive; negative”; the mutagenic call (Test System: CHINESE HAMSTER V-79, Strain/Indicator: V-79 (HGPRT)/6-THIOGUANINE, Metabolic Activation: NONE) was “inactive; negative”; the mutagenic call (Test System: CHINESE HAMSTER V-79, Strain/Indicator: V-79 (HGPRT)/6-THIOGUANINE, Metabolic Activation: RAT, LIVER, S-9, AROCLOR 1254) was “inactive; negative”.

As to `c1cnc2c(c1)[C@@H]1O[C@H]1C1OC21` (some centres not stated), the mutagenic call reads like this: under setting [5], “inactive; negative”; (Test System: AMES SALMONELLA TYPHIMURIUM, Strain/Indicator: TA100, Metabolic Activation: RAT, LIVER, S-9, AROCLOR 1254 (10% OR 20%), Method: STANDARD PLATE) “inactive; negative”.

For `O=NN(c1ccc([N+](=O)[O-])cc1)C1OC[C@@H](O)[C@H](O)[C@@H]1O` (some centres not stated), under setting [5], the mutagenic call was “active; positive”.

As for `CC1(C)[C@H](C(=O)O[C@H](C#N)c2cccc(Oc3ccccc3)c2)[C@@H]1C=C(Cl)Cl`, the mutagenic call (End Point: In vitro micronucleus, Test System: Human peripheral blood lymphocytes) is “active; positive. commercial product containing 10% alpha-cypermethrin in xylene emulsi”.
